# Several values for one entry are separate records, joined by “and”; a condition that tells them apart may be missing. Identical values can stand only once.
# How the values were obtained:
# [1] = test system: Acinetobacter baylyi ΔlpxM; experiment: MIC by broth microdilution, A. baylyi ΔlpxM; type: cell-based
# Description: (§1) Culture, genetic manipulation and MIC measurements of A. baylyi ADP1 were conducted according to previously reported procedures[46],[51]. Point mutants were constructed in a two-step procedure following ref. [52] with the introduction and excision of the integration cassette at codon 66 of pepA, wherein the excising fragment of otherwise wild-type chromosomal DNA sequence from codon 406 of pepA to codon 193 of lptG bore the desired mutation and the resulting clones were screened by amplicon sequencing from codon 81 of HolC to codon 501 of GpmI, whereas lpxM deletion was achieved following the same procedure except that the integration cassette insertion and excision removed codons 79–279 of lpxM to avoid interference with neighbouring and overlapping genes that a larger deletion may risk and replaced codon 78 with an ochre stop codon to prevent a readthrough resulting in an aberrant fusion, with the excising fragment sequence spanning from codon 211 of sppA to codon 497 of ComA and verified by amplicon sequencing from codon 94 of MhpC to codon 327 of ComA as well as by absence of a PCR product corresponding to a region spanning codons 79 to 279 of lpxM to check for duplications. A deletion of the lon protease was made in the same manner to produce the stain used for expression and purification of LptB2FG to mimic the BL21 strain of E. coli used in the rest of purifications, for which the region encompassing 72 base pairs (bp) upstream of the lon start codon and 1 bp downstream of the lon stop codon was excised after being replaced with the same integration cassette, yielding a markerless deletion, with the excising fragment sequence spanning from codon 491 of ArnT to codon 40 of 45_DOPA_Dioxygenase and verified by amplicon sequencing spanning from codon 322 of ArnT to codon 221 of 45_DOPA_Dioxygenase as well as by absence of a PCR product corresponding to a region spanning from codons 328 to 768 of lon to check for duplications. Following amplicon confirmation, three validated isolates of each constructed mutant were tested for susceptibility to a panel of antibiotics with […] known mechanisms of action as a further validation step to ensure congruence of phenotypes across replicates, which was confirmed in all cases and one of the validated replicates was later used for MIC measurements reported here.
# (§2) MIC determinations were performed by broth microdilution in line with CLSI guidelines (CLSI M07-A11 2018). Bacterial inocula were prepared by diluting overnight liquid cultures in LB. Antibacterial panels containing antibacterial solutions were inoculated with an appropriate volume of inoculum to give a final inoculum of about 5 × 10^5 c.f.u. ml^−1 and desired test concentrations of antibacterial agents in standard 96-well plates with 0.1 ml of culture per well. The test plates were incubated for 20–24 h and optical density (OD600) was recorded using a plate reader. MIC values corresponded to the lowest compound concentration inhibiting bacterial growth beyond which OD ceased to decrease.
# [2] = test system: Acinetobacter baylyi ΔLpxC; type: cell-based; conditions: A. baylyi ΔLpxC (lacking LPS)
# Description: as §1, §2
smiles,measurement,setting,value
CN1C(=O)[C@H](CCCCN)NC(=O)[C@H](CCCN)NCc2cccnc2Sc2c(Cl)ccc(-c3ccc(N)nc3)c2CNC(=O)[C@@H]1Cc1c[nH]c2ccccc12 [Compound 1],Fold less susceptible than wild type,[1]; A. baylyi lpxM deletion strain vs wild type,30 fold
same,MIC,[1]; A. baylyi ΔlpxM,0.3 µM and 0.2 µg/mL
same,MIC,[2],> 50 µM and > 40 µg/mL

# From article PMC10794137, “A new antibiotic traps lipopolysaccharide in its intermembrane transporter” (Nature, 2024)
